Active and inactive are the calls of the source.
What was measured:
[1] = biological target: Sphingosine 1-phosphate receptor 1 (Homo sapiens, UniProt P21453); format: functional;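 further: Tango beta-arrestin reporter U2OS cells stimulated with S1P near its EC80; inhibitor potency meaning antagonism of receptor activation by the natural agonist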
[2] = biological target: Sphingosine 1-phosphate receptor 4 (Homo sapiens, UniProt O95977); experiment: Fluorescence dose response cell-based high throughput screening assay for antagonists of the Sphingosine 1-Phosphate Receptor 4 (S1P4). [Related pubchem assays: 1524 (Confirmation in triplicates.), 1510 (Primary screen.)]; format: functional
Chain of Sphingosine 1-phosphate receptor 4 (O95977 whole entry): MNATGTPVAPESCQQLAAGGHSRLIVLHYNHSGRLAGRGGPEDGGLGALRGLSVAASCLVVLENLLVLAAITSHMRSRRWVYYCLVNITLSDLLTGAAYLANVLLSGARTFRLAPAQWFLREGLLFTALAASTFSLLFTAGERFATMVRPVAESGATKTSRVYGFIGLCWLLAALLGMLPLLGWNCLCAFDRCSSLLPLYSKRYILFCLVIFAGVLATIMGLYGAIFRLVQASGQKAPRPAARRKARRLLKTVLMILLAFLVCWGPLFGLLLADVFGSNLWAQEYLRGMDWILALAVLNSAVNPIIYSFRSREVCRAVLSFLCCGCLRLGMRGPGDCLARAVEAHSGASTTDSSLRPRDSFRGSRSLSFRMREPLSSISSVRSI

[3] = biological target: T1, Neuropeptide Y receptor type 2 (Homo sapiens, UniProt P49146); experiment: IC50 for human NPY-Y2 blockade – cell-based, counter-screen for NPY-Y1 antagonist project, dose response (AID 1278); format: functional
T1 sequence (P49146 whole entry): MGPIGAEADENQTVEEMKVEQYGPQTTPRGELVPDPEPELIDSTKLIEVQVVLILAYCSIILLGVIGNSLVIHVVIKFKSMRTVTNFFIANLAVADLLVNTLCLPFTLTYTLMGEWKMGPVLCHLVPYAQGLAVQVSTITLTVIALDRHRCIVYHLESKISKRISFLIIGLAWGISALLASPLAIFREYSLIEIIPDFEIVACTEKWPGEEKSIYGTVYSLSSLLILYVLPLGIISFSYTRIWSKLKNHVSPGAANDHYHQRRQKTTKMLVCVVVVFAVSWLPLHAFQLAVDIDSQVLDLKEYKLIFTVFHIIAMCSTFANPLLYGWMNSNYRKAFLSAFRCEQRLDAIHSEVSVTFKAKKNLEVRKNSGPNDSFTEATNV

[4] = biological target: T2, Neuropeptide Y receptor type 1 (Homo sapiens, UniProt P25929); experiment: IC50 of human NPY-Y1 blockers – cell-based, dose response (AID 1277); format: functional
T2 sequence (P25929 whole entry): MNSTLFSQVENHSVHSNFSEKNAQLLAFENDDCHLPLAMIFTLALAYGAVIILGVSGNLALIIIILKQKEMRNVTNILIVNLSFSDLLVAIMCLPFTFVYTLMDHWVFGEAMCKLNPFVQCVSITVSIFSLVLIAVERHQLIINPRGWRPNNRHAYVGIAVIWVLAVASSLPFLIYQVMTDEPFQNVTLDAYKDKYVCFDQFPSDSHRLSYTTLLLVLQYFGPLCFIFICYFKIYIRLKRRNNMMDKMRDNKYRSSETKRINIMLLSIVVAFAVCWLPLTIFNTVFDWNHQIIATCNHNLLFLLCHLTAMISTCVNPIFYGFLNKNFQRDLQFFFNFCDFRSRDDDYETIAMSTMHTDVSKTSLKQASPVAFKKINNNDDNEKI

[5] = reduction of Shn3 3'UTR-driven luciferase in osteoblasts – cell-based, Clone20 osteoblasts, firefly luciferase, cherry-picked, dose response (AID 624132); format: functional;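 further: firefly luciferase luminescence from reporter carrying the Shn3 3'UTR in osteoblasts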
[6] = non-specific 3'UTR reporter inhibition in Clone20-Shn3RL – cell-based, Renilla luciferase, cherry-picked, counter-screen for Shn3 inhibitor project, dose response (AID 624133); format: functional
Estrogen receptor [7] = biological target: T3, Estrogen receptor (Homo sapiens, UniProt P03372); experiment: ERα coactivator recruitment enhancers – biochemical, TR-FRET, ERα LBD, dose response (AID 737)
T3 sequence (P03372 whole entry): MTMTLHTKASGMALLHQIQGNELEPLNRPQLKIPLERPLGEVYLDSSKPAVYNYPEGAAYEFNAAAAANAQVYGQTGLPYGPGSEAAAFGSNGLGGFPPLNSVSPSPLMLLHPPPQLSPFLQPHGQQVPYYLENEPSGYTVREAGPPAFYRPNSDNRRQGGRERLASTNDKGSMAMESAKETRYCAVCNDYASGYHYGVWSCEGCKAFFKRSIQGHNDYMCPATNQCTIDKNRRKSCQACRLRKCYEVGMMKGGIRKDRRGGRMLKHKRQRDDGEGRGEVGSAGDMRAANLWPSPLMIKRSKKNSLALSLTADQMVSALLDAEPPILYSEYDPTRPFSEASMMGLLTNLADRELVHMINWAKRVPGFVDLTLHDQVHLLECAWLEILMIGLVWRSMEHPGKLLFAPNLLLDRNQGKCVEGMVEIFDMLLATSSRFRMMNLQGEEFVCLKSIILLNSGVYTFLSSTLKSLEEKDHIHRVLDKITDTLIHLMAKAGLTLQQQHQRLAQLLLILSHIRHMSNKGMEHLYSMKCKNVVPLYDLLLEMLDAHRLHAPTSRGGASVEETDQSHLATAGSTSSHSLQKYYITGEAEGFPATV

[8] = loss of viability in HepG2 cells – cell-based, CellTiter-Glo, cherry-picked, cytotoxicity control for Shn3 inhibitor project, dose response (AID 624134); format: functional
Bcl-2-like protein 10 = biological target: T4, Bcl-2-like protein 10 (Homo sapiens, UniProt Q9HD36); experiment: Concentration-response of Bcl-B inhibitors by biochemical FP with TR3 (AID 1243); format: functional
T4 sequence (Q9HD36 whole entry): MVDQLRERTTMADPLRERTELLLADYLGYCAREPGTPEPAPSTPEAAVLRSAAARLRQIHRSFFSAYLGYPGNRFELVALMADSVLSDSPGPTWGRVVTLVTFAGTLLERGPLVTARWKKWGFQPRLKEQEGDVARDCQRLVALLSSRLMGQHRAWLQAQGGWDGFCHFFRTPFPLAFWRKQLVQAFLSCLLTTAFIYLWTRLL

[9] = biological target: T5, Heat shock 70 kDa protein 1A (Homo sapiens, UniProt P0DMV8); experiment: small molecules displacing fluorescent ligand from Hsp70 – biochemical, fluorescence polarization, primary screen (AID 583)
T5 sequence (P0DMV8 whole entry): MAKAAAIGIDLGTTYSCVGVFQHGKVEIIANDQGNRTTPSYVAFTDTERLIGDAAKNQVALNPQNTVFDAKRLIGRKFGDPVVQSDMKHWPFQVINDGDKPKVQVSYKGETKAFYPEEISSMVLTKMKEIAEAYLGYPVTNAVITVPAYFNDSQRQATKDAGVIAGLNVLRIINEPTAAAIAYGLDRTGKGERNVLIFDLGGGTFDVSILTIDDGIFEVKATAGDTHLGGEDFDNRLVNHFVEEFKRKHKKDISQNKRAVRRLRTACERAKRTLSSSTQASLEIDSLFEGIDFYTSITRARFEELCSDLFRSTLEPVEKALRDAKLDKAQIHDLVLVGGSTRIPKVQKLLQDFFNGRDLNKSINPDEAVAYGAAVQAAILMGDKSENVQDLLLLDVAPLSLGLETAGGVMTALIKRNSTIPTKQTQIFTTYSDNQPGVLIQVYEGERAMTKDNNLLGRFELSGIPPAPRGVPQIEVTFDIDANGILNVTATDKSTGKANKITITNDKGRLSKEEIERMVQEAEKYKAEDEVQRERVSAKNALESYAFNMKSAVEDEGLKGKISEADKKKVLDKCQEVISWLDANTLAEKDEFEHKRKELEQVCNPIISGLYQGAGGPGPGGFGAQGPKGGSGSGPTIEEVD

[10] = biological target: T5, Heat shock 70 kDa protein 1A; experiment: small-molecule inhibition of Hsp70 – biochemical, TR-FRET (AID 786)
Estrogen receptor beta [11] = biological target: T6, Estrogen receptor beta (Homo sapiens, UniProt Q92731); experiment: blockers of SRC-3 recruitment to ERβ – biochemical, ELISA, streptavidin-HRP readout, orthogonal assay, confirmation (AID 1060)
T6 sequence (Q92731 whole entry): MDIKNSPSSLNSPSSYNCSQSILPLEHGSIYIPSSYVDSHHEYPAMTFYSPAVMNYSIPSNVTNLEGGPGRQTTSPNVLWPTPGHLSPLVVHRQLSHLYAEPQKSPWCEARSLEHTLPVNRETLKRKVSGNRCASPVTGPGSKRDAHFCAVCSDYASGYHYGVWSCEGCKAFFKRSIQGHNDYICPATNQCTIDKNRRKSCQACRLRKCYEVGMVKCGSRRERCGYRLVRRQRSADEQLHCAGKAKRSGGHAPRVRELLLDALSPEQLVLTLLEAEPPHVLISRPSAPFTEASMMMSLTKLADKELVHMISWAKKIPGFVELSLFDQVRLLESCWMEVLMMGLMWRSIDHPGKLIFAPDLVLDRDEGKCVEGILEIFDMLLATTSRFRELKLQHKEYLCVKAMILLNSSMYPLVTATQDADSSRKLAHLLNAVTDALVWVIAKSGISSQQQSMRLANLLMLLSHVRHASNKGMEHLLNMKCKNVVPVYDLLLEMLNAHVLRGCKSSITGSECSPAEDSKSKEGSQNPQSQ

Estrogen receptor beta [12] = biological target: T6, Estrogen receptor beta
Estrogen receptor [13] = biological target: T3, Estrogen receptor
[14] = Luminescence Cell-Based Dose Retest to Confirm Inhibitors of Cancer Stem Cells. [Related pubchem assays (depositor defined):AID2717, AID2721]; format: functional; conditions: Homo sapiens
[15] = (§1) Counterscreen for antagonists of the orexin 1 receptor (OX1R; HCRTR1): Fluorescence-based cell-based high throughput dose response assay to identify antagonists of the parental CHO cell line. [Related pubchem assays (depositor defined):AID434989, AID435008, AID463079, AID485270, AID492963, AID492964, AID492965, AID493232, AID504699, AID504701]; format: functional
Cytochrome P450 2C9 = Cytochrome P450 2C9 (Homo sapiens, UniProt P11712)
Chain of Cytochrome P450 2C9 (P11712 whole entry): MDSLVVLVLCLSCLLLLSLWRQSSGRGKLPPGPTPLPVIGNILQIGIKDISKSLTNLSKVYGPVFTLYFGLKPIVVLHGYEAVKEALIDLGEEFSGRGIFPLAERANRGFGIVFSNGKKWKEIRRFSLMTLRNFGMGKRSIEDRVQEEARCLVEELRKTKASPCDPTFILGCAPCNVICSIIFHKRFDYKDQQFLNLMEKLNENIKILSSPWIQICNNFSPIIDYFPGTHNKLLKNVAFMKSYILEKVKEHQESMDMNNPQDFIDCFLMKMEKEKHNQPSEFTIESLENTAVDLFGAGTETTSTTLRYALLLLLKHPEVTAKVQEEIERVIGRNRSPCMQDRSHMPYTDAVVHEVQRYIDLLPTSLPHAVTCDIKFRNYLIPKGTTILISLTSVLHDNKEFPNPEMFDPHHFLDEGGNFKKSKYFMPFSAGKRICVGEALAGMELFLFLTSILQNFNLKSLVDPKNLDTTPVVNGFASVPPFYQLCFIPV

Orexin receptor type 2 [16] = biological target: T7, Orexin receptor type 2 (Homo sapiens, UniProt O43614); experiment: Counterscreen assay for antagonists of the orexin 1 receptor (OX1R; HCRTR1): Homogeneous Time Resolved Fluorescence (HTRF)-based cell-based dose response assay for antagonists of the orexin 2 receptor (OX2R; HCRTR2), run by assay provider.; format: functional
T7 sequence (O43614 whole entry): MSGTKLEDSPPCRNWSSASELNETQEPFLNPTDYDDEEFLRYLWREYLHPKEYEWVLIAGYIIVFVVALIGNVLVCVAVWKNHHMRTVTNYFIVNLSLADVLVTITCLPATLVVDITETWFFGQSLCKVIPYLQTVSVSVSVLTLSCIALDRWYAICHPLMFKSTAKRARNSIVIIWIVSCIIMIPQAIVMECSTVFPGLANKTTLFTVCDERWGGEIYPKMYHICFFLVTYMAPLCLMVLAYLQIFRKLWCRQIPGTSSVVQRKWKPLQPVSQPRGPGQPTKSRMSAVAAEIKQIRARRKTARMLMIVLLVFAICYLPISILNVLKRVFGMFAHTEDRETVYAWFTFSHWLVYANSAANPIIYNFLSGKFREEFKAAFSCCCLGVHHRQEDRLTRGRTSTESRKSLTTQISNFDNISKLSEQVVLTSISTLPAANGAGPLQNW

[17] = biological target: Peroxisome proliferator-activated receptor gamma/Nuclear receptor coactivator 3 (Homo sapiens, UniProt P37231); format: functional;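 further: agonist potency for raising coactivator recruitment to the receptor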
H4 = experiment: Luminescence Cell-Based Dose Response HTS to Identify Activators of 5'UTR Stem-Loop Driven Prion Protein mRNA Translation in H4 Neuroglioblastoma Cells. [Related pubchem assays: 1829 (Project Summary), 1814 (Primary HTS)]; format: functional; conditions: Homo sapiens
[18] = biological target: T8, Orexin/Hypocretin receptor type 1 (Homo sapiens, UniProt O43613); experiment: (§2) Fluorescence-based cell-based high throughput dose response assay for antagonists of the orexin 1 receptor (OX1R; HCRTR1). [Related pubchem assays (depositor defined):AID434989, AID435008, AID463079, AID485270, AID492963, AID492964, AID492965, AID493232, AID504717, AID504718]; format: functional
T8 sequence (O43613 whole entry): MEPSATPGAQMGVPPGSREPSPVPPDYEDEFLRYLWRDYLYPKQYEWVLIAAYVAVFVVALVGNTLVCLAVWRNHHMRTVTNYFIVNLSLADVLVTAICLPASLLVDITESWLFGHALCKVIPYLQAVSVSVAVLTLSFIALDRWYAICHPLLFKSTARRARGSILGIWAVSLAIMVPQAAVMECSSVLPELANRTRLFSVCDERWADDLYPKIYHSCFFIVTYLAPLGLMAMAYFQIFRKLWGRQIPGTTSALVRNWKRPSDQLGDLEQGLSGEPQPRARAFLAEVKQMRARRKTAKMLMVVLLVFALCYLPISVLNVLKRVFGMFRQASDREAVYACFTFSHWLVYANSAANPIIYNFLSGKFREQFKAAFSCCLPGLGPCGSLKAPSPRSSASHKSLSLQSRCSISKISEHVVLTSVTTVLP

[19] = biological target: Protein-tyrosine kinase 2-beta (Homo sapiens, UniProt Q14289);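 further: potency of inhibitors of PYK2 kinase phosphorylation of poly-GT substrate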
Chain of Protein-tyrosine kinase 2-beta (Q14289 whole entry): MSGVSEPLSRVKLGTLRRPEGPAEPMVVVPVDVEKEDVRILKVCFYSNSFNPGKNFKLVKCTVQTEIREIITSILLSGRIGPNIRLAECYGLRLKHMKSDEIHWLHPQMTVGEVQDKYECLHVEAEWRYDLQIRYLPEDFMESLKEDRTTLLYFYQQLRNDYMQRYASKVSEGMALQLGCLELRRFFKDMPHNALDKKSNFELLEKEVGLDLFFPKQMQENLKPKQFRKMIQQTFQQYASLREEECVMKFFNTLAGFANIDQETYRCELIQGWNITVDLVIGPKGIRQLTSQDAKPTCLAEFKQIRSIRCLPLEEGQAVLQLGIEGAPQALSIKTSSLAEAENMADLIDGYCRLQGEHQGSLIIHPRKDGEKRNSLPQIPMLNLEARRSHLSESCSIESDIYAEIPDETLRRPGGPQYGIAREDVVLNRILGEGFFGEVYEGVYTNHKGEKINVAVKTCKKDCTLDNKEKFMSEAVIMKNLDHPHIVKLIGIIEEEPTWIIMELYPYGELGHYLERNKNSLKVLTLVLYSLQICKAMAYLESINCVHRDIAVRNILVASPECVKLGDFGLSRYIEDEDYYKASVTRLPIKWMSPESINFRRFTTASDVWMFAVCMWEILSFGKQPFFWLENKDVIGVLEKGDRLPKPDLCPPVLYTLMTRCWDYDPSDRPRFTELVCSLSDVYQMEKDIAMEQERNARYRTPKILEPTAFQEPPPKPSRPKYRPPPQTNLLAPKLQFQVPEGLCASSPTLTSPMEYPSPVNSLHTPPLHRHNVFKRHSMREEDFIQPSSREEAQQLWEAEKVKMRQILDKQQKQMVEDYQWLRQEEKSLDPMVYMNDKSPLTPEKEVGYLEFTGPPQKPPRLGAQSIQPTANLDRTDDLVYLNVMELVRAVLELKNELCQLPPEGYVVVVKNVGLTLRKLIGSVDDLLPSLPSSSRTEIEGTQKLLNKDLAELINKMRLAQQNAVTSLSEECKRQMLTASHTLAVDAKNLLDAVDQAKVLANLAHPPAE

[20] = biological target: Peroxisome proliferator-activated receptor gamma/Nuclear receptor coactivator 1 (Homo sapiens, UniProt P37231); format: functional;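 further: agonist potency as compounds enhance coactivator SRC-1 recruitment to PPARgamma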
[21] = biological target: Peroxisome proliferator-activated receptor gamma/Nuclear receptor coactivator 2 (Homo sapiens, UniProt P37231); format: functional;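 further: agonist potency for raising coactivator recruitment to the receptor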
Cytochrome P450 3A4 = Cytochrome P450 3A4 (Homo sapiens, UniProt P08684);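 further: CYP3A4 tested as one member of a cytochrome P450 panel screen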
Chain of Cytochrome P450 3A4 (P08684 whole entry): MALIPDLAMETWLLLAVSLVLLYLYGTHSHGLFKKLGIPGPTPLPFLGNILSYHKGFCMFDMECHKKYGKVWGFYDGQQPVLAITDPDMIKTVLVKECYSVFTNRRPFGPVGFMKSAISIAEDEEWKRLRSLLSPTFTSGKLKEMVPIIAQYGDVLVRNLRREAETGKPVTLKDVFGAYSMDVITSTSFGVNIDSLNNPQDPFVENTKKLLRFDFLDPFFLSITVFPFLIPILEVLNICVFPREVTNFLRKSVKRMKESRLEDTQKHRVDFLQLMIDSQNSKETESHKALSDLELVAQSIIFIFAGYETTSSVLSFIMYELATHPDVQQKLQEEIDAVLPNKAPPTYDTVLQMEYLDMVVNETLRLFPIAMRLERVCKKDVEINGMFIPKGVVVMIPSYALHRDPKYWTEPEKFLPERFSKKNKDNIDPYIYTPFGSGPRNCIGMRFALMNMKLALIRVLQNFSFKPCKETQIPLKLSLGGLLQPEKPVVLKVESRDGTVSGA

[22] = Luminescence Cell-Based Dose Response HTS to Identify Activators of Luciferase Translation or Activity in H4 […] Cells. [Related pubchem assays: 1829 (Project Summary), 1814 (Primary HTS)]; format: functional
[23] = biological target: T8, Orexin/Hypocretin receptor type 1; experiment: as §2, with “Homogeneous Time Resolved Fluorescence (HTRF)-based” for “Fluorescence-based”; format: functional
[24] = HIV-1 Vif–A3G interaction blockers – biochemical, TR-FRET, GST-Vif 1-94, biotin-A3G peptide, dose response retest, primary screen (AID 1117319); format: functional;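 further: TR-FRET signal of purified GST-Vif binding a biotinylated A3G peptide; inhibitors lower the FRET signal by blocking Vif and A3G binding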
Orexin receptor type 2 [25] = biological target: T7, Orexin receptor type 2; experiment: Counterscreen assay for antagonists of the orexin 1 receptor (OX1R; HCRTR1): Fluorescence-based cell-based dose response assay for antagonists of the orexin 2 receptor (OX2R; HCRTR2), run by assay provider.; format: functional
CHO-K1 = experiment: as §1, with “Homogeneous time resolved fluorescence (HTRF)-based” for “Fluorescence-based”, “cell-based” for “cell-based high throughput”, “CHO-K1” for “CHO”; format: functional; conditions: Cricetulus griseus;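 further: potency for inhibition of ATP-stimulated IP1 production as antagonists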
[26] = Luminescence Cell-Based Dose Confirmation HTS to Identify Activators of 5'UTR Stem-Loop Driven Alpha-Synuclein mRNA Translation in H4 Neuroglioblastoma Cells. [Related pubchem assays: 1829 (Project Summary), 1814 (Primary HTS)]; format: functional
Cytochrome P450 2C19 = Cytochrome P450 2C19 (Homo sapiens, UniProt P33261); experiment: Cytochrome panel assay with activity outcomes. Panel member name: p450-cyp2c19 Compounds with AC50 equal or less than 10 uM are considered active; format: functional; conditions: read-out: AC50
Chain of Cytochrome P450 2C19 (P33261 whole entry): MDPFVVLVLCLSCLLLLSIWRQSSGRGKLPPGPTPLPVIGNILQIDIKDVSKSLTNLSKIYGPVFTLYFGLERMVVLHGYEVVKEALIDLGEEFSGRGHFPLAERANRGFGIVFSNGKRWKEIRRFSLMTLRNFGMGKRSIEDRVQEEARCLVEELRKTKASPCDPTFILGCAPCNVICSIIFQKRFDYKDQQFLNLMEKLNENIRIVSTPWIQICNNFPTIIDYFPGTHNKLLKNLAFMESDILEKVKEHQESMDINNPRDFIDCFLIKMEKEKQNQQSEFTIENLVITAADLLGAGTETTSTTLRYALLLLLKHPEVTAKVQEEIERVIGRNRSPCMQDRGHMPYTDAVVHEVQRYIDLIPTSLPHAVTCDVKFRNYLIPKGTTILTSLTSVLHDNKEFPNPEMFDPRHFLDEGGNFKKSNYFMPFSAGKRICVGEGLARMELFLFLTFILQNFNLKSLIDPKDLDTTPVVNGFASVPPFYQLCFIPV

Chain of Sphingosine 1-phosphate receptor 1 (P21453 whole entry): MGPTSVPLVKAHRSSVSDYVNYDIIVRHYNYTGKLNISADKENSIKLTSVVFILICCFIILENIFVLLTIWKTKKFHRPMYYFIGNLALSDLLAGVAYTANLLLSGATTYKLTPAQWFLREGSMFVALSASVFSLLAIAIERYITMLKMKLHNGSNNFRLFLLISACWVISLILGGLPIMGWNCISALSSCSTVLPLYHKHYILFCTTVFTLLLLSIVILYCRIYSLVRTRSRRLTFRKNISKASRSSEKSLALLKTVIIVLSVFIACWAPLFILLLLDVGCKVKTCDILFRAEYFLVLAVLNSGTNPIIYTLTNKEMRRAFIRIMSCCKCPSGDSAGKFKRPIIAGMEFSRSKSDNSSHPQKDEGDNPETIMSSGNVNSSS

O=C1c2cccc3c([N+](=O)[O-])ccc(c23)C(=O)N1CC1CCCO1 (configuration not stated)
IC50 [1]: 3.72 µM (active) | IC50 [2]: 1.3 µM (active)

Cc1cccc(OCCNC(=O)c2ccc(Oc3ccc(C(F)(F)F)cc3[N+](=O)[O-])cc2)c1
IC50 [3]: > 35 µM (not active) | IC50 [4]: > 35 µM (not active)

CCOC(=O)N1CCN(S(=O)(=O)c2ccc(C(=O)Nc3nc4ccc(F)cc4s3)cc2)CC1
AC50 [5]: 4.79 µM (active) | AC50 [6]: 3.38 µM (active) | EC50 (Estrogen receptor [7]): 11.6 µM (active) | AC50 [8]: > 70 µM (inactive)

COc1ccccc1NC(=O)C1=C(C)NC(SCC(=O)c2ccc(Br)cc2)=C(C#N)C1c1ccco1 (configuration not stated)
EC50 (Bcl-2-like protein 10): 6.24 µM (active)

Cc1ccc(C(=O)ONc2ccc(N=NC(=O)c3ccccc3O)cc2)cc1
IC50 [9]: 25.2 µM (active) | IC50 [10]: 12.4 µM (active) | IC50 (Estrogen receptor beta [11]): < 0.023 µM (not active) | IC50 (Estrogen receptor beta [12]): 8.2 µM (active) | IC50 (Estrogen receptor [13]): 8.44 µM (active) | AC50 [14]: 1.51 µM (active)

CSc1nc2ccc3nc(NC(=O)c4cccs4)sc3c2s1
IC50 [15]: > 49.7 µM (inactive) | AC50 (Cytochrome P450 2C9): 0.355 µM (inconclusive) | IC50 (Orexin receptor type 2 [16]): > 50 µM (inactive) | EC50 [17]: 33.2 µM (not active) | EC50 (H4): > 120 µM (not active) | IC50 [18]: 1.23 µM (active) | IC50 [19]: 6.5 µM (active) | EC50 [20]: 35.9 µM (not active) | EC50 [21]: 25.5 µM (not active) | AC50 (Cytochrome P450 3A4): 20 µM (inconclusive) | EC50 [22]: 28 µM (active) | IC50 [23]: 0.846 µM (active) | IC50 [24]: > 100 µM (active) | IC50 (Orexin receptor type 2 [25]): > 88.8 µM (inactive) | IC50 (CHO-K1): > 66.2 µM (inactive) | EC50 [26]: 6.88 µM (active) | AC50 (Cytochrome P450 2C19): 2.82 µM (inconclusive)

Source: ChEMBL document CHEMBL1201862, “PubChem BioAssay data set” (2004)
